Assay results as given in the supplement of paper PMC6045584.

Columns and labels:
Test in all cases: area under dose-response curve of surviving fraction (unscaled, Aref=0) (surviving fraction x log10(nM)); higher = more resistant
Settings in all cases: exposure time: 5 days; dose range 0.5-1000 nM
AFIMOXIFENE = compound: CC/C(=C(\c1ccc(O)cc1)c1ccc(OCCN(C)C)cc1)c1ccccc1 [AFIMOXIFENE]
How it was run: (§1)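 Surviving fractions were fitted by 3-parameter logistic regression in the drc R package to give dose-response survival curves. They came from tumour cell lines treated for five days with eight inhibitor concentrations from 0.5 to 1000 nM and read by CellTiter-Glo luminescence against DMSO-only wells. The area under the curve is the unscaled activity area. It was calculated over log10 dose with Aref = 0.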

CABOZANTINIB = compound: COc1cc2nccc(Oc3ccc(NC(=O)C4(C(=O)Nc5ccc(F)cc5)CC4)cc3)c2cc1OC [CABOZANTINIB]
How it was run: as §1

VORINOSTAT = compound: O=C(CCCCCCC(=O)Nc1ccccc1)NO [VORINOSTAT]
How it was run: as §1

[1] = compound: CCc1cc(Nc2nccc(-c3c(-c4ccc(OC)c(C(=O)Nc5c(F)cccc5F)c4)nc4ccccn34)n2)c(OC)cc1N1CCC(N2CCN(S(C)(=O)=O)CC2)CC1
How it was run: as §1

[2] = compound: C[C@H](CN(C)C)Oc1nc(Nc2cc3cccc(Cl)c3cn2)cnc1C#N
How it was run: as §1

BMN-673 = compound: Cn1ncnc1[C@H]1c2n[nH]c(=O)c3cc(F)cc(c23)N[C@@H]1c1ccc(F)cc1 [BMN-673]
How it was run: as §1

MK-1775 = compound: C=CCn1c(=O)c2cnc(Nc3ccc(N4CCN(C)CC4)cc3)nc2n1-c1cccc(C(C)(C)O)n1 [MK-1775]
How it was run: as §1

[3] = compound: COc1ccc(-c2cc3c(C)nc(N)nc3n([C@H]3CC[C@H](OCCO)CC3)c2=O)cn1
How it was run: as §1

[4] = compound: C[C@@H]1CN(CC(=O)Nc2ccc3c(c2)Cc2cccc(-c4cc(=O)cc(N5CCOCC5)o4)c2S3)C[C@H](C)O1
How it was run: as §1

IMATINIB = compound: Cc1ccc(NC(=O)c2ccc(CN3CCN(C)CC3)cc2)cc1Nc1nccc(-c2cccnc2)n1 [IMATINIB]
How it was run: as §1

BLEOMYCIN = compound: Cc1c(N)nc([C@H](CC(N)=O)NC[C@H](N)C(N)=O)nc1C(=O)N[C@H](C(=O)N[C@H](C)[C@@H](O)[C@H](C)C(=O)N[C@H](C(=O)NCCc1nc(-c2nc(C(=O)NCCC[S+](C)C)cs2)cs1)[C@@H](C)O)[C@@H](OC1OC(CO)C(O)C(O)C1OC1OC(CO)C(O)C(OC(N)=O)C1O)c1cnc[nH]1 [BLEOMYCIN]
How it was run: as §1

LENVATINIB = compound: COc1cc2nccc(Oc3ccc(NC(=O)NC4CC4)c(Cl)c3)c2cc1C(N)=O [LENVATINIB]
How it was run: as §1

BEZ-235 = compound: Cn1c(=O)n(-c2ccc(C(C)(C)C#N)cc2)c2c3cc(-c4cnc5ccccc5c4)ccc3ncc21 [BEZ-235]
How it was run: as §1

NILOTINIB = compound: Cc1cn(-c2cc(NC(=O)c3ccc(C)c(Nc4nccc(-c5cccnc5)n4)c3)cc(C(F)(F)F)c2)cn1 [NILOTINIB]
How it was run: as §1

Test System	area under dose-response curve (AFIMOXIFENE)	area under dose-response curve (CABOZANTINIB)	area under dose-response curve (VORINOSTAT)	area under dose-response curve [1]	area under dose-response curve [2]	area under dose-response curve (BMN-673)	area under dose-response curve (MK-1775)	area under dose-response curve [3]	area under dose-response curve [4]	area under dose-response curve (IMATINIB)	area under dose-response curve (BLEOMYCIN)	area under dose-response curve (LENVATINIB)	area under dose-response curve (BEZ-235)	area under dose-response curve (NILOTINIB)
ASKA SYNOVIAL	3.82	3.68	3.14	3.91	2.79	1.83	2.32	2	3.87	3.79	2.57	3.69	2.61	3.26
CAL51 BREAST	3.36	3.28	3.06	3.35	2.73	1.22	2.31	2.28	3.27	3.53	2.39	3.18	1.99	3.22
CAL120 BREAST	3.29	3.04	2.69	3.17	3.04	2.16	2.62	2.16	3.33	3.08	2.66	3.14	2.06	3.5
CASKI CERVIX	3.25	3.03	2.94	3.15	2.76	2.72	2	1.97	2.98	3.28	1.94	3.28	1.99	2.97
CHLA90 AUTONOMIC GANGLIA	3.42	2.95	3.28	3.16	2.86	2.97	2.46	2.37	3.37	3.45	2.89	3.23	2.25	3.5
COLO320DM LARGE INTESTINE	3.71	3.68	3.04	3.7	2.74	2.75	2.44	2.16	3.46	3.72	3.13	3.67	2.61	
H23 LUNG	3.5	3.11	3.81		3.29	2.65	2.55	1.86	3.59	3.56	1.99	3.58	2.16	3.78
HCC78 LUNG	3.19	1.8	2.95	2.74	2.74	2.26	2.58	1.41	3.9	3.61	1.97	3.39	2.2	
HCT15 LARGE INTESTINE	3.52	3.2	3.26	3.39	3.27	2.22	3.01	2.38	3.44	3.74	2.34	3.67	2.4	3.52
HELA CERVIX	3.54	3.33	3.3	3.49	3.28	3.22	2.7	2.88	3.72	3.58	3.15	3.67	3.17	3.53
HOS BONE	3.46	3.24	3.28	3.27	3.05	3	2.77	2.46	3.29	3.43	3.03	3.38	2.52	3.43
HSSYII SYNOVIAL	3.31	2.98	2.82	3.08	2.56	1.15	2.05	1.93	3	3.24	2.09	2.64	2.12	3.09
HT1080 SOFT TISSUE	3.48	3.29	3.01	3.37	3.08	1.71	2.2	2.54	3.27	3.5	2.57	3.31	2.35	3.28
HU09 BONE	3.44	2.66	3.08		2.89	2.02	2.34	1.71	3.39	2.91	2.58	2.42	2.26	2.76
HUO3N1 BONE	3.5	3	3.25	3.26	3.12	2.59	2.77	2.24	3.28	3.24	2.94	3.05	2.58	3.34
JIMT1 BREAST	3.34	3.5	3.11	3.34	2.3	2.39	2.04	2.47	3.11	3.41	2.8	3.41	2.38	3.15
JURKAT HAEMATOPOIETIC AND LYMPHOID TISSUE	3.27	3.38	3.06	3.28	2.99	2.15	2.46	2.42	3.48	3.38	2.64	3.38	2.43	3.46
LM7 BONE	3.53	3.43	3.26	3.23	3.17	1.78	2.34	2.32	3.09	3.59	2.46	3.27	2.77	3.1

Test System	area under dose-response curve (AFIMOXIFENE)	area under dose-response curve (CABOZANTINIB)	area under dose-response curve (VORINOSTAT)	area under dose-response curve [1]	area under dose-response curve [2]	area under dose-response curve (BMN-673)	area under dose-response curve (MK-1775)	area under dose-response curve [3]	area under dose-response curve [4]	area under dose-response curve (IMATINIB)	area under dose-response curve (BLEOMYCIN)	area under dose-response curve (LENVATINIB)	area under dose-response curve (BEZ-235)	area under dose-response curve (NILOTINIB)
LNCAP PROSTATE	3.37	3.11	2.63	2.98	2.72	1.43	2.42	1.49	4.03	3.3		3.21	1.95	3.62
MCF7 BREAST	2.96	2.91	2.74	2.85	2.75	2.58	2.74	1.93	3.09	3.28	2.65	3.12	2.35	3.12
MDAMB134 BREAST	3.63	3.19	2.92		2.31	3.21		2.33	2.76	3.48	2.52	3.62	2.79	2.75
MDAMB231 BREAST	3.31	3.22	3.11	3.23	3.05	2.49	2.54	2.27	3.03	3.24	2.82	3.24	2.28	2.86
MDAMB361 BREAST	2.82	2.85	2.51	3.05	2.21	2.66	2.29	2.3	2.33	2.84	2.67	2.97	2.44	2.19
MDAMB436 BREAST	3.33	3.27	2.84	3.2	2.74	1.5	2.4	2.03	2.84	3.32	2.47	3.2	2.23	2.98
MHM BONE	3.46	3.23	3.28	3.29	3.43	3.2	3.12	2.79	3.5	3.51	3.06	3.4	2.85	3.6
NY BONE	3.43	3.07	3.06		2.58	2.86	2.18	2.35	3.49		2.43	3.21	2.76	3.51
OS25HAL BONE	3.51	3.05	3.21	3.27	3.06	2.71	2.36	2.12	3.38	3.47	2.85	3.19	2.66	3.17
OSHN BONE	3.65	3.22	3.47	3.42	3.08	2.4	2.85	2.99	3.42	3.71	2.72	3.63	3.19	3.28
PCI30 HEADNECK	3.49	3.08	3.21	3.27	2.74	2.82	2.58	2.34	3.24	3.49	2.41	3.61	2.54	
SCC47 HEADNECK	4.16	3.26	3.47	3.42	3.17		2.55	2.79	3.53	3.94	2.59	3.62	2.85	3.44
SIHA CERVIX	3.74	3.04	3.58	3.53	3.45	2.87	2.93	2.34	3.5	3.68		3.63	2.36	3.47
SKBR3 BREAST	3.71	3.38	3		3.03	2.55	2.64	1.77	3.21	3.66	2.72	3.48	2.41	2.88
SUM159 BREAST	3.67	3.29	3.01		3.44	3.52	3.08	2.51	3.65	3.7	3.01	3.64	2.52	3.57
SYO1 SYNOVIAL	3.24	2.68	3.02	3.07	2.54	0.997	2.27	1.95	3.18	3.02	1.65	2.56	2.23	2.99
T47D BREAST	3.17	3.4	3.15	3.46	3.29	2.5	2.97	2.22	3.37	3.66	2.92	3.63	2.71	3.49
U2OS BONE	3.56	3.26	3.23	3.38	2.9	2.8	2.46	2.54	3.54	3.59	3.02	3.24	2.68	3.59
